From PMC8617627, “Novel DYRK1A Inhibitor Rescues Learning and Memory Deficits in a Mouse Model of Down Syndrome” (Pharmaceuticals, 2021)
Read-outs that look alike come from different tables or passages of the source.

Experiments:
Assay in all cases: Kinase profile (33P ATP filter binding)
Format in all cases: biochemical
Details in all cases: read-out: Remaining protein kinase activity
[1] = target: HIPK3 (Homo sapiens, UniProt Q9H422)
[2] = target: PDGFRA (Homo sapiens, UniProt P16234)
[3] = target: T1, TGFBR1 (Homo sapiens, UniProt P36897)
T1 sequence (P36897 34-503): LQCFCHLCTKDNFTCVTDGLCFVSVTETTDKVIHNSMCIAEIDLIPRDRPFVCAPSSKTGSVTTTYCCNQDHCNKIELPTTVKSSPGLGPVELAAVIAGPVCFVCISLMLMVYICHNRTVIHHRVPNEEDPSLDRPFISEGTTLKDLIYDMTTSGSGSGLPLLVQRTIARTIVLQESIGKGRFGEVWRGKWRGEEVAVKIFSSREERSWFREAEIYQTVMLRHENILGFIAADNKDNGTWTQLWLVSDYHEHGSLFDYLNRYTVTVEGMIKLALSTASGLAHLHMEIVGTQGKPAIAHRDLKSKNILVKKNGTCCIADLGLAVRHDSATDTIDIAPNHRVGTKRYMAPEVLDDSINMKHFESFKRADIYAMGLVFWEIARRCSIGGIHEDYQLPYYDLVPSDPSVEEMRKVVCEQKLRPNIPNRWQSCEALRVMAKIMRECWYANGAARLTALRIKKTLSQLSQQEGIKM

[4] = target: STK33 (Homo sapiens, UniProt Q9BYT3)
[5] = target: PAK5 (Homo sapiens, UniProt Q9P286)
[6] = target: PAK2 (Homo sapiens, UniProt Q13177)
[7] = target: PIM2 (Homo sapiens, UniProt Q9P1W9)
[8] = target: PKBb (Homo sapiens, UniProt P31751)
[9] = target: MPSK1 (Homo sapiens, UniProt O75716)
[10] = target: IR (Homo sapiens, UniProt P06213)
[11] = target: ROCK 2 (Homo sapiens, UniProt O75116)
[12] = target: RSK1 (Homo sapiens, UniProt Q15418)
[13] = target: CK1δ (Homo sapiens, UniProt P48730)
[14] = target: T2, EPH-B3 (Homo sapiens, UniProt P54753)
T2 sequence (P54753 34-998): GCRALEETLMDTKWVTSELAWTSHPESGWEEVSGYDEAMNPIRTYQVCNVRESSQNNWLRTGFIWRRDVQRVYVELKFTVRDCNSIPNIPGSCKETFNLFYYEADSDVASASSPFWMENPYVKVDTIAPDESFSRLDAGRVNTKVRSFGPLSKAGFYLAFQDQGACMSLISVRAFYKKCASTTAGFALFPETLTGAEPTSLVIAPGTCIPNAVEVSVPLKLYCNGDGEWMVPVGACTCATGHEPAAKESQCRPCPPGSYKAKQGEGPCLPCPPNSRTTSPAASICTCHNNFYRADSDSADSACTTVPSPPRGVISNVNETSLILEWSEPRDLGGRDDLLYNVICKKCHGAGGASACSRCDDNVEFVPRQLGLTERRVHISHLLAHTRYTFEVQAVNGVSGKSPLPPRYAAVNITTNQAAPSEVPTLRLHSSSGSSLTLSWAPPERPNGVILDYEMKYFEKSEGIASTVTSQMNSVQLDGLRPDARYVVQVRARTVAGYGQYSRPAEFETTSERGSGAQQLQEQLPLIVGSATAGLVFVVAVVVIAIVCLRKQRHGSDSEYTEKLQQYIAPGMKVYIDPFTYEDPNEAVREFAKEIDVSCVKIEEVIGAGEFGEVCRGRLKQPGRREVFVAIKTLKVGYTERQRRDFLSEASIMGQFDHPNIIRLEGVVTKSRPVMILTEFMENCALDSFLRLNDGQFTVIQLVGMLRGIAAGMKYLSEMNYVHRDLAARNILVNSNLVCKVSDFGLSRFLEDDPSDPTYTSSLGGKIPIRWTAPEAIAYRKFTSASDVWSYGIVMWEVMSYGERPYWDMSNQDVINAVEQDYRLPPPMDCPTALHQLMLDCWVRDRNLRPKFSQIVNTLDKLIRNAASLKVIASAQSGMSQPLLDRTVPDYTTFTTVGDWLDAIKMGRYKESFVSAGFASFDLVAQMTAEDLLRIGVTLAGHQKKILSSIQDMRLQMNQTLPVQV

Chain of CK1δ (P48730 whole entry): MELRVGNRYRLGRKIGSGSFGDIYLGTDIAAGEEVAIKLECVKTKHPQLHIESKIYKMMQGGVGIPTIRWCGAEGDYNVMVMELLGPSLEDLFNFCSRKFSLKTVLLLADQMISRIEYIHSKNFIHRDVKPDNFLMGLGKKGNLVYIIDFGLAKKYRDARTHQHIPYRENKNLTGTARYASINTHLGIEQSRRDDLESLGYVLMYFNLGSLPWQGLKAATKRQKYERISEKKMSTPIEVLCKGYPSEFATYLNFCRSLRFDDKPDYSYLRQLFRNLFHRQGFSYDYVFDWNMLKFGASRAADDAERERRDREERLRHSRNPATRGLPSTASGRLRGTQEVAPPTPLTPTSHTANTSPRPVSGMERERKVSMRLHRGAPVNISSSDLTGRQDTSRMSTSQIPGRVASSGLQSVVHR
Chain of IR (P06213 28-1382): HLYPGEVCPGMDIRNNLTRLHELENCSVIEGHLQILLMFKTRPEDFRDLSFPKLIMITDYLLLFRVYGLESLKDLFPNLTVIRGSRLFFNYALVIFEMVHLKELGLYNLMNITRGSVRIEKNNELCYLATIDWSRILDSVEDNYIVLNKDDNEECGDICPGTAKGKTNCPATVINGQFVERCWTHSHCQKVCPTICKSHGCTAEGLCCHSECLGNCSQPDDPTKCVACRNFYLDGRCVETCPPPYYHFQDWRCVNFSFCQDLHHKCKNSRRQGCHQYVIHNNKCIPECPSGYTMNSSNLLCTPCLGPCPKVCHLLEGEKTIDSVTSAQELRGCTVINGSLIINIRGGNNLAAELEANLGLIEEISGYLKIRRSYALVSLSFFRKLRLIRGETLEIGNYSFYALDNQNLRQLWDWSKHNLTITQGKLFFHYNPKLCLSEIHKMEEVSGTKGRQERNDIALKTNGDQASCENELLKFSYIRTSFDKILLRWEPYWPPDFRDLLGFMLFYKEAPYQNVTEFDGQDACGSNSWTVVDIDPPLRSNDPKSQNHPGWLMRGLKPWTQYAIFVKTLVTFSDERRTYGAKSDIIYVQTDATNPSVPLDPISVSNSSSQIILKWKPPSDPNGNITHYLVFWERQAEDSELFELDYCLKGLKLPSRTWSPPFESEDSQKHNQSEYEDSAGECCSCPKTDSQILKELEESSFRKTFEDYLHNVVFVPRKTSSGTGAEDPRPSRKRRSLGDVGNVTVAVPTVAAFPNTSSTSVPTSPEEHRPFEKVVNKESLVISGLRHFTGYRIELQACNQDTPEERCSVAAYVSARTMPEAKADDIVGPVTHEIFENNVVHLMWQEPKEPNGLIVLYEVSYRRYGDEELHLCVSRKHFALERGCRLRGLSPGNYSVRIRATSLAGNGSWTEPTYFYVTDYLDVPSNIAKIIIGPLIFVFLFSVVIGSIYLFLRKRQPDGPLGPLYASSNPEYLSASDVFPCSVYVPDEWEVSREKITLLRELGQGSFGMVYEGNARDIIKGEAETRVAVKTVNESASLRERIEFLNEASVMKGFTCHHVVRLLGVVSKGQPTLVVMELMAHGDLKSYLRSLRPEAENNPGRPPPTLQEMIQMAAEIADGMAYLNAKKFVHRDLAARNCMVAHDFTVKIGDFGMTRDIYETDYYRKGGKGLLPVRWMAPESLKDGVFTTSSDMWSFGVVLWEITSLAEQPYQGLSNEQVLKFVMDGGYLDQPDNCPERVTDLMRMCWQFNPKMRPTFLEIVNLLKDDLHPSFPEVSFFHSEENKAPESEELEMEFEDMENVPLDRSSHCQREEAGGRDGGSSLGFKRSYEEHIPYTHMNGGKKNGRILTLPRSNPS
Chain of STK33 (Q9BYT3 whole entry): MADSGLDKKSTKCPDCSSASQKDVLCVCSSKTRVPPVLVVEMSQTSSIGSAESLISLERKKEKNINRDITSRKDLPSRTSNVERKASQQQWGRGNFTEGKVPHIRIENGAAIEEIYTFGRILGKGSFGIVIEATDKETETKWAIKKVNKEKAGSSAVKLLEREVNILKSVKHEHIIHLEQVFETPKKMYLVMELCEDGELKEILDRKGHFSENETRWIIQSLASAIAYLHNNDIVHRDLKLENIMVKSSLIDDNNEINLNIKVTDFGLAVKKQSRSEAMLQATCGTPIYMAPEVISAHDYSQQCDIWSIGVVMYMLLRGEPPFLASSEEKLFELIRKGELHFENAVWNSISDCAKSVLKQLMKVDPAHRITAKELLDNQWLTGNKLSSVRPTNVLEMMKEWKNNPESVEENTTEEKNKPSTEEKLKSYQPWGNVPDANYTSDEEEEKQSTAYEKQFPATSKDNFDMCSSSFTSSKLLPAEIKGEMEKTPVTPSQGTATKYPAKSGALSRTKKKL
Chain of HIPK3 (Q9H422 whole entry): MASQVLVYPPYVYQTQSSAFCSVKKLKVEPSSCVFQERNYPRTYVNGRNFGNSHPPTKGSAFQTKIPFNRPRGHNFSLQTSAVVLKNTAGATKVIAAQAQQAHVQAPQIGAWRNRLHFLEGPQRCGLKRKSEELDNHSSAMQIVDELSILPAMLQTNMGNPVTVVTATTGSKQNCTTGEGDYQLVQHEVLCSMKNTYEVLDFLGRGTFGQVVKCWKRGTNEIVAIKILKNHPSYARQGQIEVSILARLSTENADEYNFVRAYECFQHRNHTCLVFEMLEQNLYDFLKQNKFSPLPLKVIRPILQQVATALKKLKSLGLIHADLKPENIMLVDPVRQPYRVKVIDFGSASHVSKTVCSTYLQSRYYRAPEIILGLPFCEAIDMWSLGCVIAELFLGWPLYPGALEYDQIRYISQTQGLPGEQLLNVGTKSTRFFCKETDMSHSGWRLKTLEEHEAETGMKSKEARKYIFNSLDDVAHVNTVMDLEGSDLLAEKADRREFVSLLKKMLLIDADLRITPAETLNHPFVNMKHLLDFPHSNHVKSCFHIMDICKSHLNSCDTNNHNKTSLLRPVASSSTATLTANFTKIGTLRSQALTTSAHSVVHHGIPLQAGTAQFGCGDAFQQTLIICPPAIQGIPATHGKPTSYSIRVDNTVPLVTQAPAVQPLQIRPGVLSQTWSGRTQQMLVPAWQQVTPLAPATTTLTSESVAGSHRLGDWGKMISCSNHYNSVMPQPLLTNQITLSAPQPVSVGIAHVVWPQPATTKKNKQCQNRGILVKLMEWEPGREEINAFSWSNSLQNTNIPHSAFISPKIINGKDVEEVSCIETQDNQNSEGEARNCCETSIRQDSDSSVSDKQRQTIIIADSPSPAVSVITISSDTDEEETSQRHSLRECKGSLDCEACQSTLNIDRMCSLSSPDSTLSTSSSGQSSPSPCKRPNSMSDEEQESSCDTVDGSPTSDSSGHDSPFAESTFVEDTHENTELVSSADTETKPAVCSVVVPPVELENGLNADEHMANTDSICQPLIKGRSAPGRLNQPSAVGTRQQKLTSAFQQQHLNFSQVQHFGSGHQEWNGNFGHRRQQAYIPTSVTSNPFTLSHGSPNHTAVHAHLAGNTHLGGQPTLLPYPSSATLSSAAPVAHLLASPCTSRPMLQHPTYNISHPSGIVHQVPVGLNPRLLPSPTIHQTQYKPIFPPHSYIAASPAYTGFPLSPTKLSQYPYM
Chain of PAK2 (Q13177 whole entry): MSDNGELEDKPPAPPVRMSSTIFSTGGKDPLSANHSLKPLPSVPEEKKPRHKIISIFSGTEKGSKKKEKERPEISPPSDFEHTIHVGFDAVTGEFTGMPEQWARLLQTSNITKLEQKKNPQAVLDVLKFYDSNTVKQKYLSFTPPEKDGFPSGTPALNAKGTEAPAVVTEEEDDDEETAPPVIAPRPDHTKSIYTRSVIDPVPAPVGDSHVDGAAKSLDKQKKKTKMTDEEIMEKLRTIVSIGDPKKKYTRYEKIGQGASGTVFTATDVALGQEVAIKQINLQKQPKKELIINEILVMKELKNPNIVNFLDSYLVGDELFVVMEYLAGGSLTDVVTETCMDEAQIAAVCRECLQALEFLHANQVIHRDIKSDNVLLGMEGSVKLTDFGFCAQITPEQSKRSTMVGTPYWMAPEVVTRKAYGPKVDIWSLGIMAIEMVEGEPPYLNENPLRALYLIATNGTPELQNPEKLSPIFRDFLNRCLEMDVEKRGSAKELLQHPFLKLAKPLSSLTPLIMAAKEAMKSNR
Chain of PIM2 (Q9P1W9 whole entry): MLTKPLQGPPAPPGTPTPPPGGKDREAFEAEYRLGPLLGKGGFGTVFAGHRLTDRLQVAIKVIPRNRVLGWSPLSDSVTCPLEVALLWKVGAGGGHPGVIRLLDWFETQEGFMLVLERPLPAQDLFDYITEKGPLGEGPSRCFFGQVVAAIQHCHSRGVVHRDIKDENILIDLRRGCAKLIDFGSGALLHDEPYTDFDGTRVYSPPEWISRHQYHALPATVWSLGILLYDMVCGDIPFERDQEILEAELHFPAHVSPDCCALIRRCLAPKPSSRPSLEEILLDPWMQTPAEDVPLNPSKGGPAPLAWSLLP
Chain of PAK5 (Q9P286 whole entry): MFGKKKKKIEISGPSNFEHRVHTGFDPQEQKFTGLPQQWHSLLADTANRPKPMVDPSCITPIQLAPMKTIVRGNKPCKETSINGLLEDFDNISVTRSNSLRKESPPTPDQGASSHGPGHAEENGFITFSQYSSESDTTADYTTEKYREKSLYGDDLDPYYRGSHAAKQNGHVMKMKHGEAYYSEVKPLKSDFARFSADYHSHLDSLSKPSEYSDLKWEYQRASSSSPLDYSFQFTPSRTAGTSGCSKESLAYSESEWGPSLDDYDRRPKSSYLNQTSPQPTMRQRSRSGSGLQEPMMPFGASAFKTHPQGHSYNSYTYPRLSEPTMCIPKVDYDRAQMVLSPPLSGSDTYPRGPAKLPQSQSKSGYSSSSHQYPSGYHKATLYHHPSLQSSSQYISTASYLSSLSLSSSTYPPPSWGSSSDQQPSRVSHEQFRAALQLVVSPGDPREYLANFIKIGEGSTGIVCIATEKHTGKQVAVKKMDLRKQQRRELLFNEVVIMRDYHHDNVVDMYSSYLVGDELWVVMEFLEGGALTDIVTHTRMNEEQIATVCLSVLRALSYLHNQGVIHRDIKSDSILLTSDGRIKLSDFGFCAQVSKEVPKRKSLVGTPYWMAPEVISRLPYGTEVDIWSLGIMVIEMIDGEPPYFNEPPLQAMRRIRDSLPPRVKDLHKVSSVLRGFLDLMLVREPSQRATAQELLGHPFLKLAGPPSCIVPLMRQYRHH

COc1ccc2sc(-c3cncc(N)c3)nc2c1 [compound 1, 5-(5-Methoxybenzo[d]thiazol-2-yl)pyridin-3-amine]
remaining activity at 1 µM ([1]; HIPK3, 1 μM): 120%
remaining activity at 100 µM ([1]; HIPK3, 100 μM): 28%
remaining activity at 1 µM ([2]; PDGFRA, 1 μM): 101%
remaining activity at 100 µM ([2]; PDGFRA, 100 μM): 26%
remaining activity at 1 µM ([3]; TGFBR1, 1 μM): 105%
remaining activity at 100 µM ([3]; TGFBR1, 100 μM): 118%
remaining activity at 1 µM ([4]; STK33, 1 μM): 111%
remaining activity at 100 µM ([4]; STK33, 100 μM): 57%
remaining activity at 1 µM ([5]; PAK5, 1 μM): 111%
remaining activity at 100 µM ([5]; PAK5, 100 μM): 70%
remaining activity at 1 µM ([6]; PAK2, 1 μM): 110%
remaining activity at 100 µM ([6]; PAK2, 100 μM): 103%
remaining activity at 1 µM ([7]; PIM2, 1 μM): 110%
remaining activity at 100 µM ([7]; PIM2, 100 μM): 36%
remaining activity at 1 µM ([8]; PKBb, 1 μM): 123%
remaining activity at 100 µM ([8]; PKBb, 100 μM): 15%
remaining activity at 1 µM ([9]; MPSK1, 1 μM): 110%
remaining activity at 100 µM ([9]; MPSK1, 100 μM): 106%
remaining activity at 1 µM ([10]; IR, 1 μM): 108%
remaining activity at 100 µM ([10]; IR, 100 μM): 45%
remaining activity at 1 µM ([11]; ROCK 2, 1 μM): 108%
remaining activity at 100 µM ([11]; ROCK 2, 100 μM): 5%
remaining activity at 1 µM ([12]; RSK1, 1 μM): 99%
remaining activity at 100 µM ([12]; RSK1, 100 μM): 42%
remaining activity at 1 µM ([13]; CK1δ, 1 μM): 107%
remaining activity at 100 µM ([13]; CK1δ, 100 μM): 13%
remaining activity at 1 µM ([14]; EPH-B3, 1 μM): 130%
remaining activity at 100 µM ([14]; EPH-B3, 100 μM): 71%

COc1ccc2sc(-c3cncc(NC(C)=O)c3)nc2c1 [PST-001, N-(5-(5-Methoxybenzo[d]thiazol-2-yl)pyridin-3-yl)acetamide]
remaining activity at 1 µM [1]: 123%
remaining activity at 100 µM [1]: 100%
remaining activity at 1 µM [2]: 100%
remaining activity at 100 µM [2]: 73%
remaining activity at 1 µM [3]: 112%
remaining activity at 100 µM [3]: 129%
remaining activity at 1 µM [4]: 113%
remaining activity at 100 µM [4]: 112%
remaining activity at 1 µM [5]: 113%
remaining activity at 100 µM [5]: 129%
remaining activity at 1 µM [6]: 114%
remaining activity at 100 µM [6]: 122%
remaining activity at 1 µM [7]: 120%
remaining activity at 100 µM [7]: 102%
remaining activity at 1 µM [8]: 112%
remaining activity at 100 µM [8]: 98%
remaining activity at 1 µM [9]: 121%
remaining activity at 100 µM [9]: 113%
remaining activity at 1 µM [10]: 116%
remaining activity at 100 µM [10]: 120%
remaining activity at 1 µM [11]: 110%
remaining activity at 100 µM [11]: 64%
remaining activity at 1 µM [12]: 99%
remaining activity at 100 µM [12]: 88%
remaining activity at 1 µM [13]: 99%
remaining activity at 100 µM [13]: 59%
remaining activity at 1 µM [14]: 147%
remaining activity at 100 µM [14]: 130%
